Three compounds from PMC12173412 (PLOS Neglected Tropical Diseases, 2025) can be followed below.

For assay [1], the target named is Odor Binding Protein-like (OBPL). Also on record: species or system Haemaphysalis longicornis.
Assay [2] has as its target Niemann-Pick type C2 (NPC2). In kind it is binding, Haemaphysalis longicornis.
Assay [3] deals with Odor Binding Protein-like (OBPL). Further details: species or system Haemaphysalis longicornis. The source holds these as a separate data set.
The target of assay [4] is Niemann-Pick type C2 (NPC2). The class given is binding, Haemaphysalis longicornis. This is another data set of the same source.

As to `c1ccc(Nc2cccc3ccccc23)cc1` [1-NPN], the figures for the Kd in assay [1] and in assay [2] were 2.56 µM and 3.18 µM, respectively.

As for `Cc1c[nH]c2ccccc12` [3-methylindole], the figures for the Ki in assay [3] and in assay [4] were 4.19 µM and 15.4 µM, respectively.

With `c1ccc2[nH]ccc2c1` [indole], the Ki (commonly the dissociation constant of the complex between target and ligand, obtained from inhibition or displacement) in assay [3] was 2.26 µM; in assay [4] it was 10.3 µM.
